{
  "source": "patent US20260273059A1",
  "about": "“METHODS OF EVADING IMMUNE REJECTION” (William Marsh Rice University, priority 2023, published 2026)",
  "test_system": "cytokine producing, kill switch inducible cell line",
  "assay": "Small molecule inducible kill switch",
  "assay_type": "cell-based",
  "details": "100 nM",
  "from_the_text": "Cell engineering for cells equipped with a small molecule inducible kill switch consist of a base epithelial cell line and a highly modular PiggyBAC transposon system. This vector system is composed of a strong promotor that is constitutively expressed, a kozak translation initiation sequence, the gene of interest (any cytokine, chemokine, or other protein), an internal ribosome entry site, a kill switch gene, a puromycin resistance gene and a poly-A tail in between two inverted terminal repeat sequences. Variation to this system requires only gene of interest swapping and allows for quick and easy “plug and play” cell engineering. The kill switch can be added to enhance the safety of cells engineered to produce the following cytokines: IL-1, IL-1a, IL-1b, IL-1RA, IL-2, IL-4, IL-5, IL-6, IL-7, IL-8, IL-9, IL-10, IL-11, IL-12, IL-12a, IL-12b, IL-13, IL-14, IL-15, IL-16, IL-17, IL-20, IFN-α, IFN-b, IFN-c, TNF-α, TNF-b, TGF-b, CCL-1, CCL-2, CCL-3, CCL-4, CCL-5, CCL-6, CCL-7, CCL-8, CCL-9, CCL-10, CCL-11, CCL-12, CCL-13, CCL-14, CCL-15, CCL-16, CCL-18, CCL-19, CCL-20, CCL-21, CCL-22, CCL-23, CCL-24, CCL-25, CCL-26, CCL-27, CCL-28, CXCL1, CXCL2, CXCL3, CXCL4, CXCL5, CXCL6, CXCL7, CXCL8, CXCL9, CXCL10, CXCL11, CXCL12, CXCL13, CXCL14, CXCL15, CXCL16, CXCL17. […]",
  "data": [
    {"smiles": "CC[C@H](C(=O)N1CCCC[C@H]1C(=O)O[C@H](CCc1ccc(OC)c(OC)c1)c1cccc(OCC(=O)NCCNC(=O)COc2cccc([C@@H](CCc3ccc(OC)c(OC)c3)OC(=O)[C@@H]3CCCCN3C(=O)[C@@H](CC)c3cc(OC)c(OC)c(OC)c3)c2)c1)c1cc(OC)c(OC)c(OC)c1", "note": "[AP1903, rimiducid]", "values": [
      {"measurement": "time in which the kill switch inducible cell line responds", "result": "less than 24 hours"}
    ]}
  ]
}
